How the values were obtained:
Format in all cases: in vivo
[1] = tested on: elastin, collagen, and caspase-3 proteins; test: Western blot of elastin, collagen and caspase-3 in chronic obstructive pulmonary disease-induced mice; conditions: COPD induced 30 or 60 days; oral 250 μg/kg/day for the last 15 or 30 days; FIGS. 17 and 18
Procedure: (§1) Eight-week-old female […] mice (Orient Bio Korea Inc., Korea) having no certain pathogen were accommodated in an aseptic laminar-flow cabinet, and bred by supplying a standard solid feed ad libitum. When the following experiment was performed, the mice were made to correspond to 7- to 8-weeks old, and all laboratory animals were managed according to the protocol approved by the Institutional Animal Care and Use Committee of the Chonbuk National University Medical School.
Then, the mixed solution was intranasally administered to the mice of Preparative Example 1 once a day for 30 days or 60 days from the experimental starting date. Here, a group to which only physiological saline was intranasally administered and a group to which a solution obtained by mixing 0.25 μg of LPS with 50 μL of a 10% DMSO solution was administered were used as the controls.
A tissue was extracted from each of the mice manufactured in Experimental Method 1, and finely ground to a cell level. Thereafter, the cells were lysed in a cell lysis buffer containing a protease inhibitor to obtain a cell lysate. The cell lysate was centrifuged to obtain protein. Then, an equivalent amount of the proteins obtained from the cells were loaded on an SDS-PAGE gel and electrophoresed. […] The PVDF membrane was washed three times with a TBS-T buffer, and visualized and quantified using an ECL Western blotting detection reagent. […]

asthma-induced mice [2] = test: Lung tissue staining, degree of inflammation (grades 0 to 3), asthma-induced mice; conditions: for inflammation score (lung tissue, grades 0 to 3): asthma-induced mice, 48 hours after secondary challenge, OVA group score 3, FIG. 6
Procedure: as §1
(§2) Also, on days 21 and 28 from the experimental starting date, the mice were put into a plastic box (Plexiglas (Rohm & Haas, Philadelphia, Pa.) exposure chamber; 24.5 cm×40.5 cm×15.0 cm), and 1.5% ovalbumin was evaporated using an ultrasonic nebulizer (NE-U12; output 0.8 mL/min; Omron, Japan), and injected into the box for 30 minutes so that the mice inhaled the evaporated ovalbumin (secondary challenge).
A tissue was extracted from each of the mice manufactured in Experimental Method 1, and put into a 10% formalin solution, and reacted for 24 hours to prepare a paraffin block. Thereafter, the paraffin block was microtomed into slices with a size of 3 μm, and each of the slices was attached onto a slide, and heamatoxylin-eosin IHE staining was performed. Then, the slices were observed using a microscope. Here, the degree of inflammation was determined by indicating degrees of inflammation around the airway and blood vessels as grades 0 to 3.
0: There are no inflammatory cells;
1: Inflammatory cells are occasionally observed around the airway and blood vessels;
2: Most of the airway and blood vessels are surrounded by approximately 1 to 5 thin bands of inflammatory cells; and
3: Most of the airway and blood vessels are surrounded by thick bands of inflammatory cells (5 or more).
Preparation Example 3 (α,δ-NA-L-G) was orally administered to the asthma-induced mice of Experimental Method 1 at a concentration of 200 or 400 μg/kg/day 30 minutes before a secondary challenge, and the lung tissue was stained using the method described above in Experimental Method 6 48 hours after the secondary challenge, and the inflammation score was measured. The results are shown in A and B of FIG. 6.

NF-κB and TNF-α = test: NF-κB (Western blot) and TNF-α (ELISA) in asthma-induced mice
Procedure: as §2
A level of cytokines in the bronchoalveolar lavage fluid obtained in Experimental Method 2 was measured using an ELISA kit. Here, ELISA kits specifically manufactured for TNF-α, IL-4, IL-5, and IL-13 were used.
A tissue was extracted from each of the mice manufactured in Experimental Method 1, and finely ground to a cell level. Thereafter, the cells were lysed in a cell lysis buffer containing a protease inhibitor to obtain a cell lysate. The cell lysate was centrifuged to obtain protein. Then, an equivalent amount of the proteins obtained from the cells were loaded on an SDS-PAGE gel and electrophoresed. The proteins present in the electrophoresed gel were transferred to a PVDF membrane. The PVDF membrane was washed, and added to a blocking buffer in which 5% skim milk was included in a TBS-T buffer, and incubated at room temperature. Then, the PVDF membrane was incubated at room temperature with an antibody diluted 1:1,000 in a TBS-T buffer containing 3% BSA. Then, the PVDF membrane was washed with a TBS-T buffer, and incubated at room temperature for an hour with a dilute solution containing HRP-bound IgG. The PVDF membrane was washed three times with a TBS-T buffer, and visualized and quantified using an ECL Western blotting detection reagent.
Here, antibodies specific to elastin, caspase-3, collagen, MKP-1, p-cPLA, p-p38, NF-κB(p65), CK2α, GAPDH, or β-actin were used in the Western blot.
(§3) Specifically, the secondary challenge (ovalbumin injection) was performed according to the method described above in Experimental Method 1, and the lungs were extracted after an hour, and then measured according to the method described above in Experimental Method 7. The results are shown in A of FIG. 9. Also, the level of TNF-α corresponding to an NK-κB-dependent cytokine was measured by ELISA according to the method described above in Experimental Method 4. The results are shown in B of FIG. 9. […]
as §3, with “The” for “Specifically, the”, “30 or 60 minutes,” for “an hour,”, “The results are shown in A of FIG. 9.” left out, “4.” for “4. The results are shown in B of FIG. 9.”

asthma-induced mice [3] = test: Bronchial hypersensitivity reaction (Rrs value, methacholine), asthma-induced mice; conditions: oral 200 or 400 μg/kg/day 30 minutes before secondary challenge, 48 hours after, methacholine 5.0 to 50 mg/mL, FIG. 5
Procedure: as §1, §2
45 mg/kg of sodium pentobarbital was intraperitoneally injected into the mice prepared in Experimental Method 1 to anesthetize the mice, and the airways were cut and an 18 gauge needle was inserted into the airways. Thereafter, the needle was connected to a small-sized animal respirator connected to a computer, and the computer system was adjusted to a respiration rate of 150 breaths per minute. Then, methacholine in the form of aerosol was fed at an increasing concentration of 5.0 to 50 mg/mL so that the mice inhaled the methacholine. Then, an airway response was measured, and indicated as an Rrs value.
Preparation Example 3 (α,δ-NA-L-G) or α,δ N-acetyl-D-glutamine was orally administered to the asthma-induced mice of Experimental Method 1 at a concentration of 200 or 400 μg/kg/day 30 minutes before a secondary airway challenge, and the bronchial hypersensitivity reaction was measured 48 hours after the secondary challenge using the method described in Experimental Method 5. The results are shown in A and B of FIG. 5.

CC(=O)NC(=O)CC[C@H](NC(C)=O)C(=O)O [Preparation Example 3, 2,5-diacetamido-5-oxopentanoic acid]
levels of the elastin, collagen, and caspase-3 proteins [1]: decreased to that of the negative control (saline)
inflammation score (lung tissue, grades 0 to 3) (asthma-induced mice [2]; oral 200 μg/kg/day): 2
inflammation score (lung tissue, grades 0 to 3) (asthma-induced mice [2]; oral 400 μg/kg/day): 1
inflammation-relieving effect (lung tissue) (asthma-induced mice [2]; experiment [5-6], together with siRNA specific to MKP-1, FIG. 15): disappeared
degree of inflammation in the lung tissue (asthma-induced mice [2]; experiment [5-6], without MKP-1 siRNA, FIG. 15): inhibited
effect for reducing the levels of NF-κB and TNF-α (NF-κB and TNF-α; 400 μg/kg/day with siRNA specific to MKP-1, FIG. 9): not observed
levels of NF-κB and TNF-α (NF-κB and TNF-α; oral daily 400 μg/kg/day, an hour after secondary challenge, FIG. 9A and B): decreased
Rrs value (bronchial hypersensitivity reaction) (asthma-induced mice [3]): remarkably inhibited

Source: patent US20230026277A1, “COMPOSITION FOR PREVENTION, ALLEVIATION, OR TREATMENT OF RESPIRATORY DISEASE” (MICROX CO., LTD., priority 2019, published 2023)
